ChEMBL document CHEMBL5512609, “HDAC-targeting epigenetic modulators for cancer immunotherapy” (Eur J Med Chem, 2024)
One block for each compound: values may come before it.

Key:
[1] = target: T1, Protein cereblon/Protein deacetylase HDAC6 (Homo sapiens, UniProt Q9UBN7+Q96SW2); test: PROTAC activity at CRBN/HDAC6 in human MM1.S cells assessed as HDAC6 degradation; format: cell-based
Target sequence in this assay (Q9UBN7 whole entry): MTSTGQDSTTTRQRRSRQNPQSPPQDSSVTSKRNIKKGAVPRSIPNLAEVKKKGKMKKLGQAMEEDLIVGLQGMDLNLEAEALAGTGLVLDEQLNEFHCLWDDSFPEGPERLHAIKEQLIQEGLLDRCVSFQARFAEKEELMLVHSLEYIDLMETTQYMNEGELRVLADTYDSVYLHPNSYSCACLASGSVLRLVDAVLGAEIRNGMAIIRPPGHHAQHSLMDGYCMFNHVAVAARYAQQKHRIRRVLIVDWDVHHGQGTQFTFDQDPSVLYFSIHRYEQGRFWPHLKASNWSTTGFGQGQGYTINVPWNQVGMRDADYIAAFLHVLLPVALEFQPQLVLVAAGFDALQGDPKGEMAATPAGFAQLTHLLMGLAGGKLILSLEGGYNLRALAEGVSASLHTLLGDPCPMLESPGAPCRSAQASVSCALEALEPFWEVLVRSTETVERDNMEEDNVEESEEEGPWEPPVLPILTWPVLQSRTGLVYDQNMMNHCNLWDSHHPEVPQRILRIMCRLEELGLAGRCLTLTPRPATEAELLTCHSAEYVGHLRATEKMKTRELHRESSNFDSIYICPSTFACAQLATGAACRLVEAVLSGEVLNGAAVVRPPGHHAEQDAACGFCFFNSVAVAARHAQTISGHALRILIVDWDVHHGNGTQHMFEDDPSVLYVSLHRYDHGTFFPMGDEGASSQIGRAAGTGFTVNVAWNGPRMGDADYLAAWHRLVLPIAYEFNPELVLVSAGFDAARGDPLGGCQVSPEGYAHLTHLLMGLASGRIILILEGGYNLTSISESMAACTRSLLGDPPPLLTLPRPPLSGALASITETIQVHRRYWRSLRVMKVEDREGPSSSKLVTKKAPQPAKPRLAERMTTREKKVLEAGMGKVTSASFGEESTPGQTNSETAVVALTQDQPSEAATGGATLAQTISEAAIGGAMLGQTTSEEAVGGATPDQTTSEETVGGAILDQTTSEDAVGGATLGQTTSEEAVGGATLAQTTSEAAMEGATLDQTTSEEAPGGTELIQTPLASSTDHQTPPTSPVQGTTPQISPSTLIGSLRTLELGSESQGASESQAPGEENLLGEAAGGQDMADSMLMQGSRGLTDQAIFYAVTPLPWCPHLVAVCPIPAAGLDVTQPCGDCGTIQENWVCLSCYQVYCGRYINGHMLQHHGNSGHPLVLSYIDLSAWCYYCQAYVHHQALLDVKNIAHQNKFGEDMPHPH
Target sequence in this assay (Q96SW2 whole entry): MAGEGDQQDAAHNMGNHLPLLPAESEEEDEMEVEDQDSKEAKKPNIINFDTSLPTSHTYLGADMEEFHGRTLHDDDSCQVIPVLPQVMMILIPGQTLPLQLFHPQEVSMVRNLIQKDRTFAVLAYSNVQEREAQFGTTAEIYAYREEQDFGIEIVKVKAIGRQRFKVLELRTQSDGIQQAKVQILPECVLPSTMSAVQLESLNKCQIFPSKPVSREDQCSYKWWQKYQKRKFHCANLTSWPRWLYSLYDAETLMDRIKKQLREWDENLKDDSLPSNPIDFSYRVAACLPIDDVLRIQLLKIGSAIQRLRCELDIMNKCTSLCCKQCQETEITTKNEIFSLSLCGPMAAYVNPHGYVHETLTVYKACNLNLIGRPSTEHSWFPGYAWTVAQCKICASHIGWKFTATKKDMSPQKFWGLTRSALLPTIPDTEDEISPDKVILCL

[2] = target: T1, Protein cereblon/Protein deacetylase HDAC6; test: PROTAC activity at CRBN/HDAC6 in human HL-60 cells assessed as HDAC6 degradation; format: cell-based
Target sequence in this assay (Q9UBN7 whole entry): as the sequence (Q9UBN7 whole entry) above
Target sequence in this assay (Q96SW2 whole entry): as the sequence (Q96SW2 whole entry) above

[3] = target: T1, Protein cereblon/Protein deacetylase HDAC6; test: PROTAC activity at CRBN/HDAC6 in human HL-60 cells assessed as HDAC6 degradation by measuring maximum efficacy relative to control; format: cell-based
Target sequence in this assay (Q96SW2 whole entry, looked up): as the sequence (Q96SW2 whole entry) above
Target sequence in this assay (Q9UBN7 whole entry, looked up): as the sequence (Q9UBN7 whole entry) above

[4] = target: Programmed cell death protein 1/Programmed cell death 1 ligand 1 (Homo sapiens, UniProt Q15116+Q9NZQ7); test: Inhibition of PD-1/PDL1 interaction (unknown origin) in by HTRF assay; format: protein-complex assay
[5] = target: T2, von Hippel-Lindau disease tumor suppressor/Histone deacetylase 1 (Homo sapiens, UniProt Q13547+P40337); test: PROTAC activity at VHL/HDAC1 in human HCT-116 cells assessed as degradation of HDAC1 incubated for 24 hrs by immunoblot analysis; format: cell-based
[6] = target: T2, von Hippel-Lindau disease tumor suppressor/Histone deacetylase 1; test: PROTAC activity at VHL/HDAC1 in human HCT-116 cells assessed as degradation of HDAC1 by measuring maximum efficacy incubated for 24 hrs by immunoblot analysis relative to control; format: cell-based
[7] = target: T3, von Hippel-Lindau disease tumor suppressor/Histone deacetylase 2 (Homo sapiens, UniProt Q92769+P40337); test: PROTAC activity at VHL/HDAC2 in human HCT-116 cells assessed as degradation of HDAC2 by measuring maximum efficacy incubated for 24 hrs by immunoblot analysis relative to control; format: cell-based
[8] = target: T1, Protein cereblon/Protein deacetylase HDAC6; test: PROTAC activity at CRBN/HDAC6 in human MINO cells assessed as HDAC6 degradation incubated for 18 hrs by immunoblot analysis; format: cell-based
Target sequence in this assay (Q9UBN7 whole entry): as above
Target sequence in this assay (Q96SW2 whole entry): as the sequence (Q96SW2 whole entry) above

[9] = target: T1, Protein cereblon/Protein deacetylase HDAC6; test: PROTAC activity at CRBN/HDAC6 in human JeKo-1 cells assessed as HDAC6 degradation incubated for 18 hrs by immunoblot analysis; format: cell-based
Target sequence in this assay (Q9UBN7 whole entry): as the sequence (Q9UBN7 whole entry) above
Target sequence in this assay (Q96SW2 whole entry): as the sequence (Q96SW2 whole entry) above

[10] = target: T1, Protein cereblon/Protein deacetylase HDAC6; test: PROTAC activity at CRBN/HDAC6 in human HUVEC cells assessed as HDAC6 degradation incubated for 18 hrs by immunoblot analysis; format: cell-based
Target sequence in this assay (Q9UBN7 whole entry): as the sequence (Q9UBN7 whole entry) above
Target sequence in this assay (Q96SW2 whole entry): as the sequence (Q96SW2 whole entry) above

[11] = target: T1, Protein cereblon/Protein deacetylase HDAC6; test: PROTAC activity at CRBN/HDAC6 in human MDA-MB-231 cells assessed as HDAC6 degradation incubated for 18 hrs by immunoblot analysis; format: cell-based
Target sequence in this assay (Q9UBN7 whole entry): as the sequence (Q9UBN7 whole entry) above
Target sequence in this assay (Q96SW2 whole entry): as the sequence (Q96SW2 whole entry) above

[12] = target: T1, Protein cereblon/Protein deacetylase HDAC6; test: PROTAC activity at CRBN/HDAC6 in human MM1.S cells assessed as HDAC6 degradation incubated for 18 hrs by immunoblot analysis; format: cell-based
[13] = target: T1, Protein cereblon/Protein deacetylase HDAC6; test: PROTAC activity at CRBN/HDAC6 in human MM1.S cells assessed as HDAC6 degradation by measuring maximum efficacy incubated for 18 hrs by immunoblot analysis relative to control; format: cell-based
Target sequence in this assay (Q96SW2 whole entry, looked up): as the sequence (Q96SW2 whole entry) above
Target sequence in this assay (Q9UBN7 whole entry, looked up): as the sequence (Q9UBN7 whole entry) above

[14] = target: T1, Protein cereblon/Protein deacetylase HDAC6; test: PROTAC activity at CRBN/HDAC6 in human MM1.S cells assessed as induction of degradation of HDAC6; format: cell-based
[15] = target: T1, Protein cereblon/Protein deacetylase HDAC6; test: PROTAC activity at CRBN/HDAC6 in human MM1.S cells assessed as induction of degradation of HDAC6 by measuring maximum efficacy relative to control; format: cell-based
Target sequence in this assay (Q96SW2 whole entry, looked up): as the sequence (Q96SW2 whole entry) above
Target sequence in this assay (Q9UBN7 whole entry, looked up): as the sequence (Q9UBN7 whole entry) above

[16] = target: Protein cereblon/Histone deacetylase 8 (Homo sapiens, UniProt Q9BY41+Q96SW2); test: PROTAC activity at CRBN/HDAC8 in human Jurkat T cells assessed as induction of degradation of HDAC8 by Western blot analysis; format: cell-based
[17] = target: T4, von Hippel-Lindau disease tumor suppressor/Histone deacetylase 3 (Homo sapiens, UniProt O15379+P40337); test: Protac activity at VHL/HDAC3 in human MDA-MB-468 cells assessed as HDAC3 degradation measured after 14 hrs by Western blot analysis; format: cell-based
[18] = tested on: MDA-MB-468; test: Antiproliferative activity against human MDA-MB-468 cells; format: functional, cell-based
[19] = Inhibition of LSD1/HDAC1/CoREST complex (unknown origin) using Boc-(Ac)Lys-AMC as substrate measured after 20 mins by fluorescence based analysis; parameters: species or system Homo sapiens
[20] = Inhibition of LSD1/HDAC2/CoREST complex (unknown origin) using Boc-(Ac)Lys-AMC as substrate measured after 20 mins by fluorescence based analysis; parameters: species or system Homo sapiens
[21] = Inhibition of LSD1/HDAC3/CoREST complex (unknown origin) using Boc-(Ac)Lys-AMC as substrate measured after 20 mins by fluorescence based analysis; parameters: species or system Homo sapiens
[22] = target: T2, von Hippel-Lindau disease tumor suppressor/Histone deacetylase 1; test: PROTAC activity at VHL/HDAC1 in human HCT-116 cells assessed as degradation of HDAC1 incubated for 24 hrs by Western blot analysis; format: cell-based
[23] = target: T3, von Hippel-Lindau disease tumor suppressor/Histone deacetylase 2; test: PROTAC activity at VHL/HDAC2 in human HCT-116 cells assessed as degradation of HDAC2 incubated for 24 hrs by Western blot analysis; format: cell-based
[24] = target: T4, von Hippel-Lindau disease tumor suppressor/Histone deacetylase 3; test: PROTAC activity at VHL/HDAC3 in human HCT-116 cells assessed as degradation of HDAC3 incubated for 24 hrs by Western blot analysis; format: cell-based

Sequence of Programmed cell death protein 1/Programmed cell death 1 ligand 1 (Q15116 whole entry): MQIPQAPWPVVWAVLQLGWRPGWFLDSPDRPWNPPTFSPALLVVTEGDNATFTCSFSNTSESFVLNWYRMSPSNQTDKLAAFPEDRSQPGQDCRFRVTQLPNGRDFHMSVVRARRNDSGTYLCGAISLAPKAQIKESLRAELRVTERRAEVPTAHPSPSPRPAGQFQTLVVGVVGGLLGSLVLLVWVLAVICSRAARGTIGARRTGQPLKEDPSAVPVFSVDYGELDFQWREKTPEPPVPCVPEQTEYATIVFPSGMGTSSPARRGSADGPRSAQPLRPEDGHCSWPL
Sequence of Programmed cell death protein 1/Programmed cell death 1 ligand 1 (Q9NZQ7 whole entry): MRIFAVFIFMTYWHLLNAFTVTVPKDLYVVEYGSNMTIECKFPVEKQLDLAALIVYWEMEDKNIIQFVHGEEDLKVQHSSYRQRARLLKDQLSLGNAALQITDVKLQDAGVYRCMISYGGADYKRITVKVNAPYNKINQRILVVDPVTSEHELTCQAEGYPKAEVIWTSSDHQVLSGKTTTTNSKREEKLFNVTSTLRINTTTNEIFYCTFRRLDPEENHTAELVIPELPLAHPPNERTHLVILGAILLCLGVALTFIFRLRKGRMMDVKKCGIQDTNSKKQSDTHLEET

Structure (SMILES): Cc1c(COc2ccc(CNCCC(=O)NO)c(F)c2)cccc1-c1ccccc1
IC50 [4]: 120 nM

Structure (SMILES): COc1cc(OCc2cccc(-c3ccccc3)c2C)cc(OC)c1CN(C)CCCC(=O)NO
IC50 [4]: 104 nM

Structure (SMILES): Cc1c(COc2ccc(CNCCC(=O)NO)c(OCc3cccc(C#N)c3)c2)cccc1-c1ccccc1
IC50 [4]: 82 nM

Structure (SMILES): COc1cc(OCc2cccc(-c3ccccc3)c2C)cc(OC)c1CNCCCCCCC(=O)NO
IC50 [4]: 85 nM

Structure (SMILES): Cc1c(COc2ccc(CNCCCCCC(=O)NO)c(F)c2)cccc1-c1ccccc1
IC50 [4]: 62 nM

Now from value to compound:

DC50 [1]: 3.8 nM | DC50 [2]: 19.4 nM | Emax [3]: 92.2%
Structure (SMILES): Cc1nc2cc(NC(=O)CCCCCCCNC(=O)COc3cccc4c3C(=O)N(C3CCC(=O)NC3=O)C4=O)ccc2n1Cc1ccc(C(=O)NO)cc1F (stereo not drawn)

DC50 [5]: 2840 nM | Emax [6]: 62% | Emax [7]: 62%
Structure (SMILES): Cc1ncsc1-c1ccc(CNC(=O)[C@H]2C[C@H](O)CN2C(=O)[C@H](NC(=O)CCn2cc(CCCOC(=O)NCc3ccc(C(=O)Nc4ccc(F)cc4N)cc3)nn2)C(C)(C)C)cc1

DC50 [8]: 3.2 nM | DC50 [9]: 3.2 nM | DC50 [10]: 3.2 nM | DC50 [11]: 3.2 nM | DC50 [12]: 1.6 nM | Emax [13]: 86%
Structure (SMILES): CCCCN(Cc1ccc(C(=O)NO)cc1)C(=O)Nc1ccc(OCCCCCCCn2cc(CCCCCNc3cccc4c3C(=O)N(C3CCC(=O)NC3=O)C4=O)nn2)cc1 (stereo not drawn)

DC50 [14]: 1.6 nM | Emax [15]: 86%
Structure (SMILES): CCCCN(Cc1ccc(C(=O)NO)cc1)C(=O)Nc1ccc(NC(=O)CCCCCc2cn(CCOCCNc3cccc4c3C(=O)N(C3CCC(=O)NC3=O)C4=O)nn2)cc1 (stereo not drawn)

DC50 [16]: 250 nM
Structure (SMILES): COc1cc(C(=O)NO)ccc1NCc1ccc(OCc2cn(CCCCCC(=O)Nc3cccc4c3C(=O)N(C3CCC(=O)NC3=O)C4=O)nn2)cc1 (stereo not drawn)

DC50 [17]: 42 nM | IC50 [18]: 52 nM
Structure (SMILES): CCCNNC(=O)c1ccc(-c2ccc(NC(=O)CCCCCCC(=O)N[C@H](C(=O)N3C[C@H](O)C[C@H]3C(=O)N[C@H](C)c3ccc(-c4scnc4C)cc3)C(C)(C)C)cc2)cc1

IC50 [19]: 16800 nM | IC50 [20]: 16800 nM | IC50 [21]: 16800 nM | DC50 [22]: 1000 nM | DC50 [23]: 1000 nM | DC50 [24]: 1000 nM
Structure (SMILES): Cc1ncsc1-c1ccc(CNC(=O)[C@H]2C[C@H](O)CN2C(=O)[C@H](NC(=O)CCCCCCCCCCC(=O)Nc2ccc(C(=O)Nc3ccccc3N)cc2)C(C)(C)C)cc1
